According to US20020037328A1, “Hexitol compositions and uses thereof” (priority 2000, published 2002):

System: murine fibrosarcomas (RIF-1 cells)
Test: Tumor growth delay (tumor volume quadrupling time) of RIF-1 fibrosarcomas in C3H mice
Type: in vivo
Conditions: Dianhydrogalactitol 10 mg/kg, Cisplatin 4 mg/kg; for Delay (median TVQT of treated group minus control group) / TVQT/CTVQT (ratio of TVQT of treated tumor over untreated control) / Median (TVQT): RIF-1 tumors in C3H mice, i.p., combination 10 → 4 mg/kg (30 min apart); for TVQT/CTVQT (ratio of TVQT of treated tumor over untreated control): control 1.0; for Median (TVQT): control 6.3; for Mean TVQT ± S.E. (tumor volume quadrupling time): RIF-1 tumors intradermal in female C3H mice, single i.p. injection, combination 10 → 4 mg/kg (cisplatin 30 min after dianhydrogalactitol), 4 mice per group, untreated control 6.3 ± 0.3
Method: Transplantable experimental murine fibrosarcomas (2×10^5 RIF-1 cells) were grown intradermally in the flanks of 3 month old female C3H mice (Charles River, Hollister, Calif.). When the tumors reached a volume of approximately 100 mm^3, the mice were randomly assigned to each experimental group (4 mice per group).
The experimental compositions were prepared as described in Table 1.
Dianhydrogalactitol was obtained from NCI and was made to the appropriate concentration in DMSO. Cisplatin (David Bull Laboratories- Mulgrave, Australia, lot. 5201844x) was made to the appropriate concentration in water for injection. The compositions were injected systemically (i.e., intraperitoneally, i.p.), in a volume of 100 microliters. For the treatment of group 3, dianhydrogalactitol, was injected 30 minutes prior to the injection of cisplatin. After treatment, the growth of the tumors was monitored three times per week by caliper measurements of three perpendicular diameters of the tumor and calculation of tumor volume from the formula: […]
where D1-3 are the diameters in mm of the three perpendicular axes.
The tumors were followed until they reached a size of four times their day zero treatment volume (TVQT), or up to 30 days after treatment, whichever came first. The data is expressed as the “tumor volume quadrupling time” (TVQT) mean and as the “delay.” Mean TVQT is the mean days required for individual tumors to grow to four times the tumor volume at the initial treatment day. The “delay” is the median of days required for a tumor to grow to four times the mean size of the treated group, minus the median of days required to grow to four times the mean size of the control group. The data is also expressed as the ratio of the tumor volume quadrupling time of the treated tumor over the untreated control group (TVQT/CTVQT). Increasing values of this ratio indicate increased antitumor response.

SMILES | Delay (median TVQT of treated group minus control group) | TVQT/CTVQT (ratio of TVQT of treated tumor over untreated control) | Median (TVQT) | Mean TVQT ± S.E. (tumor volume quadrupling time)
N.N.[Cl][Pt][Cl] [Cisplatin, cis-diamminedichloroplatinum II] | 1.45 days | 1.2 | 7.7 days | 7.4 ± 0.3 days
OC(C1CO1)C(O)C1CO1 (centres unmarked) [Dianhydrogalactitol, 1,2:5,6-Dianhydrogalactitol] | 5.12 days | 1.7 | 11.4 days | 10.9 ± 0.8 days
